# Data published in ChEMBL document CHEMBL3885881, “DrugMatrix”.
# Species: Rattus norvegicus
# Experiment: DrugMatrix - Regimen: Daily Repeat
# Assay type: toxicity, organism-based, Sprague-Dawley
# Parameters: regimen Daily Repeat, gender Male, age 6-8 weeks
# Details: in vivo, po, route oral GAVAGE, vehicle .5 % CMC; for ABSOLUTE BASOPHIL / BASOPHIL / EOSINOPHIL / ERYTHROCYTE COUNT / HEMATOCRIT / HEMOGLOBIN / LEUKOCYTE COUNT / LYMPHOCYTE / MEAN CORPUSCULAR HEMOGLOBIN / MEAN CORPUSCULAR HEMOGLOBIN CONCENTRATION / MEAN CORPUSCULAR VOLUME / MONOCYTE / NEUTROPHIL / PLATELET COUNT: tissue Blood; for ALANINE AMINOTRANSFERASE / ALKALINE PHOSPHATASE / ASPARTATE AMINOTRANSFERASE / BLOOD UREA NITROGEN / CHLORIDE / CHOLESTEROL / CREATINE PHOSPHOKINASE / CREATININE / GLUCOSE / PHOSPHORUS / POTASSIUM / SODIUM / TOTAL BILIRUBIN / TOTAL PROTEIN: tissue Plasma
# [1] = 0 mg/kg, 72 h, dose level Control, time 3 day
# [2] = 0 mg/kg, 120 h, dose level Control, time 5 day
# [3] = 32 mg/kg, 72 h, dose level Low, time 3 day
# [4] = 32 mg/kg, 120 h, dose level Low, time 5 day
# [5] = 320 mg/kg, 72 h, dose level High, time 3 day
# [6] = 320 mg/kg, 120 h, dose level High, time 5 day
compound,measurement,setting,value
C1CCC(C(CC2CCCCN2)C2CCCCC2)CC1 (stereo not drawn) [PERHEXILINE],ABSOLUTE BASOPHIL,[1],16.7 cells/µL
same,BASOPHIL,[1],0.17%
same,EOSINOPHIL,[1],0.62%
same,ERYTHROCYTE COUNT,[1],6.55 x10E6/uL
same,HEMATOCRIT,[1],42%
same,HEMOGLOBIN,[1],13.48 G/DL
same,LEUKOCYTE COUNT,[1],8.79 x10E3/uL
same,LYMPHOCYTE,[1],76.98%
same,MEAN CORPUSCULAR HEMOGLOBIN,[1],20.57 pg
same,MEAN CORPUSCULAR HEMOGLOBIN CONCENTRATION,[1],32.08 G/DL
same,MEAN CORPUSCULAR VOLUME,[1],64.1 fL
same,MONOCYTE,[1],2.12%
same,NEUTROPHIL,[1],19%
same,PLATELET COUNT,[1],1432.17 x10E3/uL
same,ALANINE AMINOTRANSFERASE,[1],42.83 u/L
same,ALKALINE PHOSPHATASE,[1],328.5 u/L
same,ASPARTATE AMINOTRANSFERASE,[1],78.33 u/L
same,BLOOD UREA NITROGEN,[1],14.5 mg/dL
same,CHLORIDE,[1],104.5 MEQ/L
same,CHOLESTEROL,[1],78.67 mg/dL
same,CREATINE PHOSPHOKINASE,[1],282.33 u/L
same,CREATININE,[1],0.25 mg/dL
same,GLUCOSE,[1],173.67 mg/dL
same,PHOSPHORUS,[1],12.83 mg/dL
same,POTASSIUM,[1],6.7 MEQ/L
same,SODIUM,[1],145.83 MEQ/L
same,TOTAL BILIRUBIN,[1],0.4 mg/dL
same,TOTAL PROTEIN,[1],5.93 G/DL
same,ABSOLUTE BASOPHIL,[2],28 cells/µL
same,BASOPHIL,[2],0.26%
same,EOSINOPHIL,[2],0.44%
same,ERYTHROCYTE COUNT,[2],6.99 x10E6/uL
same,HEMATOCRIT,[2],45.12%
same,HEMOGLOBIN,[2],14.26 G/DL
same,LEUKOCYTE COUNT,[2],9.42 x10E3/uL
same,LYMPHOCYTE,[2],79.92%
same,MEAN CORPUSCULAR HEMOGLOBIN,[2],20.44 pg
same,MEAN CORPUSCULAR HEMOGLOBIN CONCENTRATION,[2],31.62 G/DL
same,MEAN CORPUSCULAR VOLUME,[2],64.6 fL
same,MONOCYTE,[2],2.2%
same,NEUTROPHIL,[2],16.14%
same,PLATELET COUNT,[2],1062.2 x10E3/uL
same,ALANINE AMINOTRANSFERASE,[2],44 u/L
same,ALKALINE PHOSPHATASE,[2],342.6 u/L
same,ASPARTATE AMINOTRANSFERASE,[2],74.17 u/L
same,BLOOD UREA NITROGEN,[2],13 mg/dL
same,CHLORIDE,[2],103 MEQ/L
same,CHOLESTEROL,[2],72.83 mg/dL
same,CREATINE PHOSPHOKINASE,[2],184.67 u/L
same,CREATININE,[2],0.47 mg/dL
same,GLUCOSE,[2],168.17 mg/dL
same,PHOSPHORUS,[2],12.27 mg/dL
same,POTASSIUM,[2],6.98 MEQ/L
same,SODIUM,[2],147 MEQ/L
same,TOTAL BILIRUBIN,[2],0.65 mg/dL
same,TOTAL PROTEIN,[2],6.23 G/DL
same,ABSOLUTE BASOPHIL,[3],20 cells/µL
same,BASOPHIL,[3],0.17%
same,EOSINOPHIL,[3],0.47%
same,ERYTHROCYTE COUNT,[3],6.84 x10E6/uL
same,HEMATOCRIT,[3],42.07%
same,HEMOGLOBIN,[3],13.8 G/DL
same,LEUKOCYTE COUNT,[3],11 x10E3/uL
same,LYMPHOCYTE,[3],83.1%
same,MEAN CORPUSCULAR HEMOGLOBIN,[3],20.2 pg
same,MEAN CORPUSCULAR HEMOGLOBIN CONCENTRATION,[3],32.8 G/DL
same,MEAN CORPUSCULAR VOLUME,[3],61.57 fL
same,MONOCYTE,[3],1.9%
same,NEUTROPHIL,[3],12.83%
same,PLATELET COUNT,[3],1282.33 x10E3/uL
same,ALANINE AMINOTRANSFERASE,[3],33.33 u/L
same,ALKALINE PHOSPHATASE,[3],346 u/L
same,ASPARTATE AMINOTRANSFERASE,[3],61 u/L
same,BLOOD UREA NITROGEN,[3],11.67 mg/dL
same,CHLORIDE,[3],104.33 MEQ/L
same,CHOLESTEROL,[3],65.33 mg/dL
same,CREATINE PHOSPHOKINASE,[3],229 u/L
same,CREATININE,[3],0.37 mg/dL
same,GLUCOSE,[3],183.67 mg/dL
same,PHOSPHORUS,[3],13.7 mg/dL
same,POTASSIUM,[3],6.87 MEQ/L
same,SODIUM,[3],145.33 MEQ/L
same,TOTAL BILIRUBIN,[3],0.3 mg/dL
same,TOTAL PROTEIN,[3],5.73 G/DL
same,ABSOLUTE BASOPHIL,[4],150 cells/µL
same,BASOPHIL,[4],1.2%
same,EOSINOPHIL,[4],0.5%
same,ERYTHROCYTE COUNT,[4],7.42 x10E6/uL
same,HEMATOCRIT,[4],47.53%
same,HEMOGLOBIN,[4],15.03 G/DL
same,LEUKOCYTE COUNT,[4],12.21 x10E3/uL
same,LYMPHOCYTE,[4],82.57%
same,MEAN CORPUSCULAR HEMOGLOBIN,[4],20.33 pg
same,MEAN CORPUSCULAR HEMOGLOBIN CONCENTRATION,[4],31.7 G/DL
same,MEAN CORPUSCULAR VOLUME,[4],64.2 fL
same,MONOCYTE,[4],2.13%
same,NEUTROPHIL,[4],12.7%
same,PLATELET COUNT,[4],1404 x10E3/uL
same,ALANINE AMINOTRANSFERASE,[4],34.33 u/L
same,ALKALINE PHOSPHATASE,[4],375.33 u/L
same,ASPARTATE AMINOTRANSFERASE,[4],68.33 u/L
same,BLOOD UREA NITROGEN,[4],11.33 mg/dL
same,CHLORIDE,[4],102 MEQ/L
same,CHOLESTEROL,[4],67 mg/dL
same,CREATINE PHOSPHOKINASE,[4],206.67 u/L
same,CREATININE,[4],0.3 mg/dL
same,GLUCOSE,[4],187 mg/dL
same,PHOSPHORUS,[4],12.13 mg/dL
same,POTASSIUM,[4],6.8 MEQ/L
same,SODIUM,[4],149.67 MEQ/L
same,TOTAL BILIRUBIN,[4],0.3 mg/dL
same,TOTAL PROTEIN,[4],6.4 G/DL
same,ABSOLUTE BASOPHIL,[5],33.3 cells/µL
same,BASOPHIL,[5],0.33%
same,EOSINOPHIL,[5],0.4%
same,ERYTHROCYTE COUNT,[5],7.33 x10E6/uL
same,HEMATOCRIT,[5],45.27%
same,HEMOGLOBIN,[5],14.7 G/DL
same,LEUKOCYTE COUNT,[5],9.79 x10E3/uL
same,LYMPHOCYTE,[5],79.33%
same,MEAN CORPUSCULAR HEMOGLOBIN,[5],20.1 pg
same,MEAN CORPUSCULAR HEMOGLOBIN CONCENTRATION,[5],32.53 G/DL
same,MEAN CORPUSCULAR VOLUME,[5],61.77 fL
same,MONOCYTE,[5],1.37%
same,NEUTROPHIL,[5],17.17%
same,PLATELET COUNT,[5],1599 x10E3/uL
same,ALANINE AMINOTRANSFERASE,[5],47 u/L
same,ALKALINE PHOSPHATASE,[5],318.5 u/L
same,ASPARTATE AMINOTRANSFERASE,[5],61.67 u/L
same,BLOOD UREA NITROGEN,[5],9.67 mg/dL
same,CHLORIDE,[5],102.33 MEQ/L
same,CHOLESTEROL,[5],74 mg/dL
same,CREATINE PHOSPHOKINASE,[5],199.67 u/L
same,CREATININE,[5],0.33 mg/dL
same,GLUCOSE,[5],167 mg/dL
same,PHOSPHORUS,[5],14.17 mg/dL
same,POTASSIUM,[5],6.63 MEQ/L
same,SODIUM,[5],146.33 MEQ/L
same,TOTAL BILIRUBIN,[5],0.33 mg/dL
same,TOTAL PROTEIN,[5],6 G/DL
same,ABSOLUTE BASOPHIL,[6],50 cells/µL
same,BASOPHIL,[6],0.5%
same,EOSINOPHIL,[6],0.34%
same,ERYTHROCYTE COUNT,[6],7.26 x10E6/uL
same,HEMATOCRIT,[6],45.84%
same,HEMOGLOBIN,[6],14.82 G/DL
same,LEUKOCYTE COUNT,[6],10.17 x10E3/uL
same,LYMPHOCYTE,[6],80.92%
same,MEAN CORPUSCULAR HEMOGLOBIN,[6],20.46 pg
same,MEAN CORPUSCULAR HEMOGLOBIN CONCENTRATION,[6],32.36 G/DL
same,MEAN CORPUSCULAR VOLUME,[6],63.26 fL
same,MONOCYTE,[6],1.18%
same,NEUTROPHIL,[6],16.4%
same,PLATELET COUNT,[6],1254 x10E3/uL
same,ALANINE AMINOTRANSFERASE,[6],48.8 u/L
same,ALKALINE PHOSPHATASE,[6],300.75 u/L
same,ASPARTATE AMINOTRANSFERASE,[6],75.6 u/L
same,BLOOD UREA NITROGEN,[6],12.2 mg/dL
same,CHLORIDE,[6],102.2 MEQ/L
same,CHOLESTEROL,[6],68.6 mg/dL
same,CREATINE PHOSPHOKINASE,[6],173.4 u/L
same,CREATININE,[6],0.36 mg/dL
same,GLUCOSE,[6],186.4 mg/dL
same,PHOSPHORUS,[6],13.36 mg/dL
same,POTASSIUM,[6],6.38 MEQ/L
same,SODIUM,[6],146.8 MEQ/L
same,TOTAL BILIRUBIN,[6],0.28 mg/dL
same,TOTAL PROTEIN,[6],5.88 G/DL
